Reference: patent US6869929B2, “Use of transcription factors for treating inflammation and other diseases” (Beth Israel Deaconess Medical Center, priority 2000, dated 2005)

Key:
COX-2 promoter = COX-2 promoter luciferase construct (pXP2/COX-2) in RAW 264.7 cells; type: cell-based, human; settings: luciferase 16 h
Experimental: Full-length and dominant-negative mutant ESE-1 cDNAs were inserted into the pCI (Promega) eukaryotic expression vector as described (Oettgen, P., et al. et al. 1997, Mol Cell Biol 17:4419-33). The human COX-2 promoter spanning −170 to +103, kindly provided by Dr. Leslie J. Crofford, University of Michigan, (14) was cloned into the pXP2 luciferase vector (pXP2/COX-2).
(§1) Cotransfections of 3-8×10^5 cells were carried out with 600 ng reporter gene construct DNA and 200 ng expression vector DNA using LipofectAMINE PLUS (Gibco-BRL) for 16 hours as described (Oettgen, P., et al. et al., 1997, Mol Cell Biol 17:4419-33). Transfections were performed independently in duplicate and repeated 3 to 4 times with different plasmid preparations with similar results.
We were interested to know which genes that are associated with inflammatory responses are targeted by ESE-1. We focused on the COX-2 gene, an important target for IL-1β, TNF-α, and LPS in inflammation. Furthermore, the COX-2 promoter contains multiple putative Ets binding sites that are potential targets for ESE-1. A COX-2 promoter luciferase construct, pXP2/COX-2, was transfected into RAW 264.7 cells in the absence or presence of the ESE-1 expression vector, pCI/ESE-1. ESE-1 enhanced COX-2 promoter activity more than 10-fold (FIG. 13a). […]

ESE-1 promoter = ESE-1 promoter luciferase construct (pXP2/ESE-1) transfection; type: cell-based, human; settings: RAW 264.7 cells; 16 h
Experimental: as §1
To investigate the molecular mechanism by which IL-1 β and LPS regulate ESE-1 expression, we examined the response of an ESE-1 promoter luciferase construct after transfection using two cytokine responsive non-epithelial cell types, U-138 MG human glial cells and RAW 264.7 cells, a murine macrophage cell line (Oettgen, P., et al. 1999, Genomics 55:358-62). Whereas the parental pXP2 vector was not stimulated by IL-1β, in U-138 MG cells, IL-1β increased ESE-1 promoter activity up to 5-fold (FIG. 12a). Similarly, LPS enhanced ESE-1 promoter activity ˜9-fold in RAW 264.7 cells (FIG. 12b).

NOS2 promoter [1] = test: LPS (endotoxin) induction of NOS2 promoter luciferase reporter in RAW cells; type: cell-based, murine; settings: response to endotoxin (LPS)
Experimental: (§2) A 1516 and 265 bp fragment corresponding to nucleotides (−1485 to +31) and (−234 to +31) of the murine NOS2 gene promoter were subcloned into the PGL2 luciferase reporter(Promega).
(§3) Co-transfections of 2×10^5 RAW cells or RASMCs were carried out with 0.6 μg reporter gene construct DNA and 0.6 μg expression vector DNA using 6 μl lipofectamine (Gibco-BRL) as described (Oettgen, P., et al. 1996. Characterization of NERF, a novel transcription factor related to the Ets factor ELF-1. Mol Cell Biol 16:5091-106). The cells were harvested 16 hours after transfection and assayed for luciferase activity. Transfections for every construct were performed independently in duplicates and repeated 3 times with two different plasmid preparations with similar results. Cotransfection of a second plasmid for determination of transfection efficiency was omitted because potential artifacts with this technique have been reported and because many commonly used viral promoters contain potential binding sites for ets factors (Farr, A., and A. Roman. 1992. A pitfall of using a second plasmid to determine transfection efficiency. Nucleic Acids Res 20:920).
In the presence of LPS, the ESE-1 DN1 protein blocked induction of the NOS2 promoter by LPS by approximately 70-75%. (See FIG. 21C).

ESE-1 = ESE-1 mRNA RT-PCR in THP-1 monocytic cells; type: cell-based, human; settings: THP-1 cells; within one hour
Experimental: U-87 Mg and U-138 Mg (human glioma), THP-1 (human monocytic), RAW 264.7 (murine monocytic), LB-12 (human osteoblast-like large T antigen transformed bone marrow stromal cells), and human chondrocytes were grown and treated with cytokines as described (Apperley, J., et al. 1990. J Bone Mineral Res. 5:S93; Goldring, M. B., et al. 1994. J Clin Invest 94:2307-16; Goldring, S. R., et al. 1983. J Bone Joint Surg 65:575-84; Libermann, T. A., et al. 1987. Embo J. 6:1627-1632).
cDNAs were generated from 1 μg of total RNA using Ready-To-Go™ You-prime First-Strand Beads (Amersham Pharmacia Biotech Inc). RT-PCR amplifications of 0.1 μg cDNA were carried out using a MJResearch thermal cycler PTC-100 as follows: 5 min at 94° C., 20-37 cycles of 30 sec at 94° C., 30 sec at 56° C., and 30 sec at 72° C., followed by 5 min at 72° C. (Oettgen, P., et al. 2000, J Biol Chem 275:1216-25). The sequences of the human ESE-1 primers and the primers for human GAPDH were as described (Oettgen, P., et al. 1999, J Biol Chem 274:29439-52).
Macrophages represent an additional cell type present within RA synovial tissues and are a major target of bacterial endotoxin. We, therefore, examined the effects of lipopolysaccharide (LPS) on ESE-1 expression in monocytes using the human monocytic cell line, THP-1 (FIG. 11e).

COL2A1 promoter [2] = test: COL2A1 promoter luciferase cotransfection in T/C-28a2 cells; type: cell-based, human; settings: T/C-28a2; pGL3 construct; highest concentrations tested
Experimental: (§4) The COL2A1 sequence spanning −577 to +3428 bp (Goldring M B, et al, J Cell Biochem 1994;54:85-99, 39) was cloned into the pGL2-basic (pGL2B) luciferase reporter gene vector (Promega,) and named pGL2-COL2/4.0. Deletion constructs containing −577/+125 bp, −131/+125 bp, −87/+125 bp were prepared by enzyme digestion of pGL2-COL2/4.0 using PstI, ApaI, and PuuII, followed by ligation. For the deletion constructs −45/+125 bp, −83/+7 bp, and −45/+7 bp, PCR products were generated as described (Osaki et al.) and cloned into the pGL2-Basic luciferase vector. These reporter constructs were used as templates to generate point mutations or internal deletions by PCR mutagenesis employing the oligonucleotides listed in FIG. 16 and the QuikChange™ Site-Directed Mutagenesis Kit (Stratagene, La Jolla, Calif.). DNA fragments containing point mutations were then cloned into the pGL2B vector and confirmed by DNA sequencing using a G2 primer on pGL2 DNA. Deletions were also made in the −577/+127 bp COL2A1 promoter construct using the ExSite™ PCR-Based Site-Directed Mutagenesis Kit (Stratagene).
(§5) Transient transfection experiments were carried out in C-28/I2 cells using LipofectAMINE PLUS™ Reagent (Life Technologies). Cells were seeded in 6-well tissue culture plates at 3.5×10^5 cells/well in DMEM/F12 containing 10% FCS 24 h prior to transfection. For each well, 1 μg of COL2A1-luciferase construct, 6 μl of PLUS reagent and 92 μl of serum-free DMEM/F12 were mixed and incubated for 15 min at room temperature. LipofectAMINE+ reagent (4 μl) in 100 μl of serum-free medium was then added to each reaction mixture and incubation was continued for an additional 30 min at room temperature. Finally, the transfection mixture was combined with 800 μl of serum-free medium and the lipid-nucleic acid complex was transferred to the washed cell monolayer in each well. After incubation for 4 h at 37° C., the transfection mix was diluted with an equal volume of DMEM/F12 containing 2% Nutridoma-SP, and incubation continued for 18 h in the absence or presence of IL-1β. For cotransfections, the cells were incubated for 24 h to permit expression of recombinant proteins prior to treatment with IL-1β for a further 18 h. Cell lysates were prepared by extraction with 200 μl of Reporter Lysis Buffer (Promega) and the protein content was determined using the Coomassie Plus Protein Assay Reagent (PIERCE). Luciferase activities were determined by chemiluminescence assay using the Autolumat LB953 luminometer (EG&G Berthold, Oak Ridge, Tenn.), normalized to the amount of protein. Each data point was calculated as the mean±standard deviation for three independently transfected cultures from one representative of at least three experiments. […]

ICAM-2 promoter = test: Cotransfection of ESE-1 with luciferase reporter constructs of potential target genes; type: cell-based; settings: cotransfection of expression plasmid with luciferase reporter
Experimental: as §3
In an attempt to identify target genes for ESE-1, the ability of ESE-1 to transactivate the promoters of several genes that are induced in response to inflammatory stimuli were tested. […] Transactivation of the ICAM-2 promoter by ESE-1 led to a 3.5 fold induction. […] The NOS2 gene promoter has two important regulatory regions, one that is upstream (−1100 to −800) and one that is in the more proximal promoter (−234 to +31). […]

NOS2 promoter [3] = test: ESE-1 transactivation of NOS2 promoter luciferase reporter, cotransfection in RAW cells; type: cell-based, murine; settings: cotransfection with NOS2 promoter
Experimental: as §2, §3
The ability of ESE-1 DN 1 to block transactivation of the NOS2 promoter was tested in RAW cells. Cotransfection of ESE-1 with the NOS2 promoter led to an approximate 12-fold increase in transactivation. […]

COL2A1 promoter [4] = test: COL2A1 promoter/intron deletion constructs, transient transfection in C-28/I2 cells; type: cell-based, human
Experimental: as §4
as §5, with “For cotransfections, the cells were incubated for 24 h to permit expression of recombinant proteins prior to treatment with IL-1β for a further 18 h.” left out
To localize the responses to IL-1β and ESE-1 in the COL2A1 promoter, we made several 5′-deletions of the −577/+127 bp promoter construct, which we had previously determined to be responsive to IL-1β.

induction of the ICAM-2 promoter (ICAM-2 promoter) | Substance | induction of COX-2 promoter activity (COX-2 promoter) | increase in ESE-1 promoter activity (ESE-1 promoter) | increase in NOS2 promoter activity (NOS2 promoter [1]) | ESE-1 expression (ESE-1) | inhibition of COL2A1/4.0 activity (COL2A1 promoter [2]) | increase in transactivation of the NOS2 promoter (NOS2 promoter [3]) | response of -131/+127 and -83/+127 bp constructs (COL2A1 promoter [4]) | inhibition of -577/+127, -530/+127, -403/+127 bp constructs (COL2A1 promoter [4]; 200 ng, highest amount) | increased expression of pGL2P+2370/+2672 and pGL2B-28/+2122 constructs (COL2A1 promoter [4]; overexpression)
 | lipopolysaccharide [LPS] | more than 20 fold | ~9 fold | ~14 fold | induced ESE-1 expression |  |  |  |  | 
3.5 fold | ESE-1: full-length Ets transcription factor ESE-1 overexpressed from the pCI expression vector | more than 10 fold |  |  |  | 20% | ~12 fold | did not respond | levels of inhibition similar to IL-1β | ~10 fold
